According to patent publication EP0586525B1, “CARBOXAMIDO-(1,2N)-CARBOCYCLIC-2-AMINOTETRALIN DERIVATIVES” (priority 1991, dated 1992):

Assays:
[1] = target: T1, 5-hydroxytryptamine (5-HT1A) receptor (Bos taurus, UniProt F6Q2H9); assay: Inhibition of 8-OH-DPAT binding in a bovine brain homogenate; conditions: read-out: Binding at the 5-HT1A receptor site, IC50
T1 construct: from tissue; host or cells: bovine brain homogenate
T1 sequence (F6Q2H9 1-422): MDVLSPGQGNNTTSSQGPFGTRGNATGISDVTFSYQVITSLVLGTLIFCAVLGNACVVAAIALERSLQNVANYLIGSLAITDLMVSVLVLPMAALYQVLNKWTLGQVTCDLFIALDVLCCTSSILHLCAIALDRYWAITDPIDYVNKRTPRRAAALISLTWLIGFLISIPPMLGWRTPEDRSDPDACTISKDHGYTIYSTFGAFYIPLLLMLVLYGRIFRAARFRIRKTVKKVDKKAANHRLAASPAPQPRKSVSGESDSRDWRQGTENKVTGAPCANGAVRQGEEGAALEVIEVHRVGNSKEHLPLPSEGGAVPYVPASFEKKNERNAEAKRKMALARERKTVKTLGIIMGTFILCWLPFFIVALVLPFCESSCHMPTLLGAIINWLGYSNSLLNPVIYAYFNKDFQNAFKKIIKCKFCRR
Description: Binding: Inhibition of 8-OH-DPAT binding in a bovine brain homogenate. Potency is given as nM dose required to inhibit 50% of DPAT binding (IC50). This test measures ability to bind to 5-hydroxytryptamine (5-HT1A) receptor.

Mouse hypothermia = format: in vivo; conditions: dose depressing temperature by 2°C or more in two of four mice
Procedure: Hypothermia: Starting with a dose of 30 mg/kg, four mice are injected subcutaneously with test compound. Twenty minutes later, the number of animals whose body temperature has decreased by 2°C. or more are counted. If all four animals reach criteria, the drug is considered "active", and subsequent readings are taken at 60 and 120 minutes after drug. The time for last statistically significant drug affect on mean body temperature is indicated in minutes. […] Active compounds are retested using oral administration. Potency is given as mg/kg ED50 (dose required to depress temperature in two of four mice) as measured by Spearman-Karber statistics.

[2] = system: spontaneous sympathetic activity; assay: Sympathetic nerve discharge (SND) in chloralose anesthetized cats; format: in vivo; conditions: Felis catus, iv, dose range 0.001-1.0 mg/kg, read-out: Sympathetic nerve discharge, ED50 dose which inhibits spontaneous sympathetic activity
Procedure: Sympathetic Nerve Discharge (SND): The i.v. mg/kg dose causing a 50% depression in SND in chloralose anesthetized cats and the maximum inhibition of sympathetic activity observed in the dose range tested (0.001-1.0 mg/kg i.v.).

[3] = Blood pressure at the SND ED50 dose (BP SND/MAX); format: in vivo; conditions: at the dose which inhibited sympathetic activity by 50%, i.v., chloralose anesthetized cats
Procedure: BP SND/MAX: The blood pressure of the chloralose anesthetized cats in percent control at the dose causing 50% depression in SND and the maximum reduction in blood pressure as percent of the control blood pressure in the same animals observed in the dose range tested (0.001-1.0 mg/kg i.v.).

[4] = system: dorsal raphe 5-HT cell firing; assay: 5-HT cell firing in chloral hydrate anesthetized rats; format: in vivo; conditions: Rattus norvegicus, iv, read-out: Depression of 5-HT cell firing, ED50
Description: 5-HT Cell Firing: The i.v. mg/kg dose causing a 50% depression in the firing of dorsal raphe 5-HT cell firing in chloral hydrate anesthetized rats.

rat hepatocytes = assay: In vitro rat hepatocyte intrinsic clearance; format: in vitro ADME; conditions: for In vitro hepatocyte assay clearance: 2, 5 and 15 µg/ml, 60 minute incubation at 37°C, rat hepatocytes 5.0 million cells/ml; for relative metabolic stability (rel. stab.): relative to cis-(±)2,3,3a,4,5,9b-hexahydro-9-carboxamido-3-(n-propyl)-1H-benz[e]indole, rat hepatocytes
Procedure: Aliquots of each incubate were withdrawn at preset times during the incubation and analyzed for parent compound using HPLC methodology. Intrinsic clearance is expressed as ml/min/5 million cells and metabolic stability relative to cis-(+)2,3,3a,4,5,9b-hexahydro-9-carboxamide-3-(n-propyl)-1H-benz[e]indole is determined.

[5] = Pharmacokinetics following constant infusion (steady state clearance); conditions: plasma, iv; after 12 hour infusion (300 µg/hour), anesthetized rat; read-out: In vivo steady state clearance
Procedure: Pharmacokinetics Following Constant Infusion: Clearance rate (ml/min/kg) was determined following a 12 hour infusion (300 µg/hour) of compound in the anesthetized rat. Disappearance of parent compound from plasma was measured at multiple time points following cessation of the infusion using HPLC methodology.

[6] = Oral plasma bioavailability; format: in vivo; conditions: rat, 6 mg/kg, conscious rats
Procedure: Oral Bioavailability: Comparison of the disappearance of compound from plasma following oral (6 mg/kg) and intravenous (2 mg/kg) administration in conscious rats. Parent compound in plasma was measured at multiple time points following administration using HPLC methodology. Bioavailability is expressed as a percentage of the drug in plasma following oral administration compared to that following intravenous administration.

[7] = rat, in vivo; cited from earlier work
[8] = sc, subcutaneous (s.c.) administration

Compound | IC50 [1] [nM] | ED50 (Mouse hypothermia; oral (p.o.) administration) [mg/kg] | ED50 (Mouse hypothermia; [8]) [mg/kg] | ED50 [2] [mg/kg] | Percent of control arterial blood pressure [3] [%] | ED50 [4] [mg/kg] | In vitro hepatocyte assay clearance (rat hepatocytes) | relative metabolic stability (rel. stab.) (rat hepatocytes) | clearance [5] [mL/min/kg] | bioavailability ([6]; Study 1, oral 6 mg/kg vs i.v. 2 mg/kg) [%] | bioavailability ([6]; Study 2, samples taken for 24 hours after administration, oral 6 mg/kg vs i.v. 2 mg/kg) [%] | bioavailability ([6]; study not given, oral 6 mg/kg vs i.v. 2 mg/kg) [%] | plasma oral bioavailability [7] [%]
CCCN1CC[C@H]2c3c(cccc3C(N)=O)CC[C@H]21 (racemic) [Compound 1, cis-(±)2,3,3a,4,5,9b-hexahydro-9-carboxamido-3-(n-propyl)-1H-benz[e]indole] | 5.2 | 7.3 | 0.97 | 0.037 | 82 | 0.002 | .013 ml/min/5 million cells | 1.0 | 58 | 59 | 70 |  | 
CCCN1CCCC2c3c(cccc3C(N)=O)CCC21 (racemic) [Compound 4, trans-(±)1,2,3,4,4a,5,6,10b-octahydro-10-carboxamido-4-(n-propyl)-benzo[f]quinoline] | 3.7 | 4.1 | 0.23 |  |  |  |  |  |  |  |  |  | 
CCCN1CC[C@H]2c3c(cccc3C(N)=O)CC[C@H]21 (single isomer, unassigned) [Compound 2, cis-(-)2,3,3a,4,5,9b-hexahydro-9-carboxamido-3-(n-propyl)-1H-benz[e]indole] | 10.2 |  |  | 0.019 | 84 | 0.006 |  |  |  |  |  |  | 
CCCN1CCC2c3c(cccc3C(N)=O)CCC21 (single isomer, unassigned) [Compound 3, cis-(+)2,3,3a,4,5,9b-hexahydro-9-carboxamido-3-(n-propyl)-1H-benz[e]indole] | 533 |  |  | > 1 |  | > 0.3 |  |  |  |  |  |  | 
CCCN1CCCC2c3c(cccc3C(N)=O)CCC21 (single isomer, unassigned) [Compound 5, trans-(-)1,2,3,4,4a,5,6,10b-octahydro-10-carboxamido-4-(n-propyl)-benzo[f]quinoline] | 1.5 |  | 1.73 | 0.15 | 85 | > 0.1 | .012 ml/min/5 million cells | 3.59 | 43 |  |  | 86 | 
CCCN1CCC[C@H]2c3c(cccc3C(N)=O)CC[C@@H]21 (single isomer, unassigned) [Compound 6, trans-(+)1,2,3,4,4a,5,6,10b-octahydro-10-carboxamido-4-(n-propyl)-benzo[f]quinoline] |  |  |  |  |  |  |  | 1.05 |  |  |  |  | 
CCCN(CCC)C1CCc2cccc(O)c2C1 (centres unmarked) [8-OH DPAT] |  |  |  |  |  |  |  |  |  |  |  |  | < 5
